Measurements reported in article PMC10281575, “PfCRT mutations conferring piperaquine resistance in falciparum malaria shape the kinetics of quinoline drug binding and transport” (PLOS Pathogens, 2023).
Several values for one entry are separate records, joined by “and”; a condition that tells them apart may be missing. Equal values may be shown once.

Key:
water-injected oocytes = assay: Radiolabeled drug uptake in water-injected control oocytes (intrinsic drug accumulation); type: cell-based, Xenopus laevis; conditions: pH 6.0, one value per biological replicate
Protocol: Adult female X. laevis frogs (purchased from NASCO) were anesthetized by submersion in a solution of 0.3% (w/v) 3-amino benzoate methanesulfonate for 15 min. Sections of the ovary were surgically removed and placed in Ca^2+-free ND96 buffer supplemented with 0.1% collagenase D (w/v; Roche), 0.5% BSA (w/v) and 9 mM Na2HPO4 at 18°C for 14–16 h while gently shaking. The oocytes were then washed several times with ND96 buffer (5 mM HEPES, pH 7.5, 96 mM NaCl, 2 mM KCl, 1.8 mM CaCl2, 1 mM MgCl2), supplemented with […] gentamycin. Healthy-looking stage V-VI oocytes were manually selected and randomly grouped for injection. A codon-optimized coding sequence of PfCRT was subcloned into the pSP64T expression vector and subsequently linearized using the restriction endonuclease BamHI or SalI (New England Biolabs GmbH). RNA for injection was transcribed in vitro using the mMESSAGE mMACHINE SP6 Transcription kit (Ambion), diluted with nuclease-free water to a final concentration of 0.6 μg/μL and stored at -80°C. RNA was injected using precision-bore glass capillary tubes (3.5-inch glass capillaries; Drummond Scientific Co.), which were pulled on a vertical puller (P-87 Flaming/Brown micropipette puller, Sutter Instrument Co.) and graduated. The micropipettes were connected to a microinjector (Nanoject II Auto-Nanoliter Injector, Drummond Scientific Co.). Injection was conducted under stereomicroscopic control. 50 nL of nuclease-free water alone (control oocytes) or 50 nL of nuclease-free water containing 30 ng of RNA was injected per oocyte. Injected oocytes were kept for 72 h at 18°C in ND96 buffer with two daily buffer changes before being used for further experiments.
Drug transport assays were performed as previously described. Briefly, measurements of radiolabeled drug uptake were made over 1 h, unless otherwise specified. […] Where specified, one or more unlabeled drugs were also present at the indicated concentrations. […] The uptake assays were terminated by removing the oocytes from the reaction medium and washing them three times with 2 mL of ice-cold ND96 buffer. Each oocyte was transferred to a separate scintillation vial and lysed by the addition of 200 μL of a 5% SDS solution. The radioactivity in the sample was measured using a liquid scintillation analyser Tri-Carb 4910 TR (PerkinElmer). Water-injected oocytes were analyzed in parallel as a negative control. The buffer from each condition was measured in duplicate in parallel to each experiment to transform counts per minute into pmol of drug. Drug uptake attributable to PfCRT was determined by subtracting the background uptake from water-injected oocytes from that of PfCRT-expressing oocytes. In all cases, at least three independent experiments were performed on oocytes from different frogs, and for each condition in an experiment, measurements were made from 10 oocytes per treatment.

PfCRT^Dd2_H97Y = target: T1, PfCRT^Dd2_H97Y (Plasmodium falciparum, UniProt Q8IBZ9, A220S/H97Y/I356T/K76T/M74I/N326S/N75E/Q271E/R371I); assay: Verapamil inhibition of PfCRT-mediated CQ and PPQ transport in oocytes, PfCRT^Dd2_H97Y; type: cell-based; conditions: individual replicates (S3 Fig)
T1 construct: expressed in transfected cells; host or cells: Xenopus laevis oocytes injected with in vitro transcribed RNA (pSP64T)
T1 sequence (Q8IBZ9 1-424 M74I/N75E/K76T/H97Y/A220S/Q271E/N326S/I356T/R371I): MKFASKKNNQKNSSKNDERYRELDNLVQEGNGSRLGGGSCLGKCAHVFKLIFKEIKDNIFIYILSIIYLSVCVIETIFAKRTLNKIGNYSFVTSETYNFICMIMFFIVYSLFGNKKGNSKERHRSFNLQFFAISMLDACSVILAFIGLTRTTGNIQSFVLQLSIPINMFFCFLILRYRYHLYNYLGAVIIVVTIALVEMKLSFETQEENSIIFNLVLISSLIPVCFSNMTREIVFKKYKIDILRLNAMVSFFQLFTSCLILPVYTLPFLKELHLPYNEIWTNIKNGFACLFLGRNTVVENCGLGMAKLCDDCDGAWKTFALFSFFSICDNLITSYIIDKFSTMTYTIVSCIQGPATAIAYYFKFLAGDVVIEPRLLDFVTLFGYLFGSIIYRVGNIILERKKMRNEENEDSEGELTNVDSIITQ
Protocol: In all cases, the PfCRT-mediated CQ and PPQ transport was inhibited in the presence of 100 μM verapamil (S3 Fig).
Drug transport assays were performed as previously described. Briefly, measurements of radiolabeled drug uptake were made over 1 h, unless otherwise specified. […] Where specified, one or more unlabeled drugs were also present at the indicated concentrations. The direction of drug transport in the assays is from the extracellular medium (pH 6) into the oocyte cytosol (pH 7.2), which corresponds to the efflux of CQ or PPQ from the acidic digestive vacuole (pH 5.2) into the parasite cytosol (pH 7.2). The uptake assays were terminated by removing the oocytes from the reaction medium and washing them three times with 2 mL of ice-cold ND96 buffer. Each oocyte was transferred to a separate scintillation vial and lysed by the addition of 200 μL of a 5% SDS solution. The radioactivity in the sample was measured using a liquid scintillation analyser Tri-Carb 4910 TR (PerkinElmer). Water-injected oocytes were analyzed in parallel as a negative control. The buffer from each condition was measured in duplicate in parallel to each experiment to transform counts per minute into pmol of drug. Drug uptake attributable to PfCRT was determined by subtracting the background uptake from water-injected oocytes from that of PfCRT-expressing oocytes. In all cases, at least three independent experiments were performed on oocytes from different frogs, and for each condition in an experiment, measurements were made from 10 oocytes per treatment.
Supplementary file ppat.1011436.s006.tif: S3 Fig Verapamil inhibits PfCRT-mediated transport of CQ and PPQ. […] Left panels, data is shown as individual biological replicates (coloured symbols) overlaid onto bars representing the Mean ± S.E.M. (error bars). A one-tailed Student’s t-test was performed between untreated (no VP) and treated (+ 100 μM VP) samples, and the obtained p values are shown. Right panels, the uptake in VP-treated samples was divided by the uptake in their corresponding untreated pairs and subtracted from 100% to get the percentage of uptake inhibition mediated by the presence of 100 μM verapamil in the extracellular medium. Error bars are S.E. (TIF) Click here for additional data file.

CCN(CC)CCCC(C)Nc1ccnc2cc(Cl)ccc12 (stereo not drawn) [CQ, chloroquine]
water-injected uptake of CQ at 10 min (water-injected oocytes; 50 μM CQ): 3.00 pmol oocyte-1 and 2.99 pmol oocyte-1 and 4.09 pmol oocyte-1 and 3.71 pmol oocyte-1 and 0.95 pmol oocyte-1 and 4.05 pmol oocyte-1 and 0.39 pmol oocyte-1 and 2.80 pmol oocyte-1 and 2.76 pmol oocyte-1 | water-injected uptake of CQ at 30 min (water-injected oocytes; 50 μM CQ): 5.48 pmol oocyte-1 and 5.44 pmol oocyte-1 and 5.22 pmol oocyte-1 and 9.34 pmol oocyte-1 and 5.41 pmol oocyte-1 and 1.36 pmol oocyte-1 and 4.88 pmol oocyte-1 and 5.49 pmol oocyte-1 and 4.65 pmol oocyte-1 | water-injected uptake of CQ at 60 min (water-injected oocytes; 50 μM CQ): 10.84 pmol oocyte-1 and 8.71 pmol oocyte-1 and 14.37 pmol oocyte-1 and 7.57 pmol oocyte-1 and 2.74 pmol oocyte-1 and 9.73 pmol oocyte-1 and 10.77 pmol oocyte-1 and 12.13 pmol oocyte-1 and 9.43 pmol oocyte-1 | water-injected uptake of CQ at 90 min (water-injected oocytes; 50 μM CQ): 10.67 pmol oocyte-1 and 8.60 pmol oocyte-1 and 15.53 pmol oocyte-1 and 9.13 pmol oocyte-1 and 10.08 pmol oocyte-1 and 13.10 pmol oocyte-1 and 8.74 pmol oocyte-1 | water-injected uptake of CQ at 120 min (water-injected oocytes; 50 μM CQ): 15.57 pmol oocyte-1 and 11.64 pmol oocyte-1 and 20.59 pmol oocyte-1 and 11.40 pmol oocyte-1 and 13.60 pmol oocyte-1 and 13.51 pmol oocyte-1 and 14.13 pmol oocyte-1 and 14.32 pmol oocyte-1 | water-injected uptake of CQ at 180 min (water-injected oocytes; 50 μM CQ): 15.62 pmol oocyte-1 and 20.71 pmol oocyte-1 and 19.14 pmol oocyte-1 and 17.36 pmol oocyte-1 and 14.82 pmol oocyte-1 and 15.40 pmol oocyte-1 and 19.29 pmol oocyte-1 | PfCRTDd2_H97Y-mediated CQ transport (PfCRT^Dd2_H97Y; 50 µM CQ + 100 µM VP): 2.480 pmol oocyte-1 h-1 and 0.550 pmol oocyte-1 h-1 and 3.310 pmol oocyte-1 h-1 and 4.210 pmol oocyte-1 h-1 | PfCRTDd2_H97Y-mediated CQ transport (PfCRT^Dd2_H97Y; 50 µM CQ): 8.240 pmol oocyte-1 h-1 and 3.560 pmol oocyte-1 h-1 and 5.410 pmol oocyte-1 h-1 and 4.920 pmol oocyte-1 h-1

Clc1ccc2c(N3CCN(CCCN4CCN(c5ccnc6cc(Cl)ccc56)CC4)CC3)ccnc2c1 [PPQ, piperaquine]
water-injected PPQ uptake at 10 min (water-injected oocytes; 50 μM PPQ): 41.08 pmol oocyte-1 and 24.73 pmol oocyte-1 and 20.03 pmol oocyte-1 and 11.15 pmol oocyte-1 and 47.19 pmol oocyte-1 and 42.00 pmol oocyte-1 and 43.00 pmol oocyte-1 and 24.03 pmol oocyte-1 and 24.68 pmol oocyte-1 | water-injected PPQ uptake at 30 min (water-injected oocytes; 50 μM PPQ): 39.93 pmol oocyte-1 and 81.64 pmol oocyte-1 and 110.61 pmol oocyte-1 and 36.25 pmol oocyte-1 and 63.03 pmol oocyte-1 and 70.49 pmol oocyte-1 and 61.47 pmol oocyte-1 | water-injected PPQ uptake at 60 min (water-injected oocytes; 50 μM PPQ): 160.55 pmol oocyte-1 and 290.10 pmol oocyte-1 and 103.17 pmol oocyte-1 and 89.81 pmol oocyte-1 and 146.11 pmol oocyte-1 and 119.20 pmol oocyte-1 and 106.15 pmol oocyte-1 and 92.97 pmol oocyte-1 and 66.51 pmol oocyte-1 and 37.81 pmol oocyte-1 and 81.90 pmol oocyte-1 and 130.00 pmol oocyte-1 and 94.16 pmol oocyte-1 and 115.25 pmol oocyte-1 and 26.09 pmol oocyte-1 | water-injected PPQ uptake at 90 min (water-injected oocytes; 50 μM PPQ): 141.60 pmol oocyte-1 and 108.94 pmol oocyte-1 and 115.49 pmol oocyte-1 and 110.70 pmol oocyte-1 and 135.43 pmol oocyte-1 and 121.15 pmol oocyte-1 and 104.62 pmol oocyte-1 | water-injected PPQ uptake at 120 min (water-injected oocytes; 50 μM PPQ): 303.20 pmol oocyte-1 and 211.45 pmol oocyte-1 and 192.46 pmol oocyte-1 and 188.86 pmol oocyte-1 and 88.47 pmol oocyte-1 and 177.90 pmol oocyte-1 and 230.86 pmol oocyte-1 and 32.42 pmol oocyte-1 and 62.20 pmol oocyte-1 and 374.51 pmol oocyte-1 and 406.68 pmol oocyte-1 | water-injected PPQ uptake at 180 min (water-injected oocytes; 50 μM PPQ): 179.29 pmol oocyte-1 and 189.51 pmol oocyte-1 and 135.33 pmol oocyte-1 and 198.05 pmol oocyte-1 and 192.50 pmol oocyte-1 and 163.03 pmol oocyte-1 and 220.09 pmol oocyte-1 and 265.31 pmol oocyte-1 and 192.47 pmol oocyte-1 | PfCRTDd2_H97Y-mediated PPQ transport (PfCRT^Dd2_H97Y; 50 µM PPQ + 100 µM VP): 18.33 pmol oocyte-1 h-1 and 31.33 pmol oocyte-1 h-1 and 27.94 pmol oocyte-1 h-1 and 23.86 pmol oocyte-1 h-1
